Non-standard residues stand in square brackets, D forms with d. Residues, ends and D or L forms follow the SMILES beside them. *: point of attachment. Orn = NCCC[C@H](N)C(=O)O; Cbz = O=C(OCc1ccccc1)*; Boc = CC(C)(C)OC(=O)*; X1 = CC1CCN=C(N*)S1
Assays:
[1] = tested on: mouse embryonic cells (MEC); type: cell-based; details: 10 μM; with and without K3Fe(CN)6
Method: Electron paramagnetic resonance (“EPR”) spectroscopy was used to monitor the cellular delivery of compounds 5a and 5b shown in FIG. 2 in mouse embryonic cells (“MEC”).
The following conditions were used during the EPR-based analysis of the integration and reduction of nitroxide Gramicidin S-peptidyl conjugates in MECs. The MECs at a concentration of 10 million MECs per mL were incubated with 10 μM of 4-AT and compound 5a, respectively. Recovered nitroxide radicals in whole cells, mitochondria, and cytosol fractions were resuspended in phosphate buffer saline (“PBS”) in the presence and absence, respectively, of 2 μM K3Fe(CN)6.

[2] = tested on: MECs; assay: Determination of intracellular superoxide radicals (DHE oxidation, flow cytometry) in ActD-treated MECs; type: cell-based, mouse; details: 10 μM pretreatment, ActD 100 ng/mL; nearly two-fold ActD-induced increase
Method: Determination of intracellular superoxide radicals Oxidation-dependent fluorogenic dye, dihydroethidium (“DHE”, Molecular Probes) was used to evaluate intracellular production of superoxide radicals. DHE is cell permeable and, in the presence of superoxide, is oxidized to fluorescent ethidium which intercalates into DNA. The fluorescence of ethidium was measured using a FACscan (BECTON-DICKINSON, Rutherford, N.J.) flow cytometer, equipped with a 488-nm argon ion laser and supplied with the Cell Quest software. Mean fluorescence intensity from 10,000 cells were acquired using a 585-nm bandpass filter (FL-2 channel).

[3] = tested on: MECs; assay: ActD-induced apoptosis in MECs (PS externalization, caspase-3 activation, DNA fragmentation); type: cell-based, mouse; details: 10 μM / low concentrations, ActD 100 ng/mL
Excerpt: Cells that annexin V-positive and PI-negative were considered apoptotic.

[4] = tested on: 32D c13 hemopoietic cells; assay: Mass spectrometry analysis of mitochondria isolated from incubated 32D c13 cells; type: cell-based; details: 100 μM, two hours at 37° C.
Method: An unconjugated and conjugated NOS antagonist, (AMT, 100 μM) and an unconjugated and conjugated nitroxide derivative (4-amino-TEMPO, 100 μM) were incubated for two hours at 37° C. with 32D c13 hemopoietic cells.
Following incubation, the cells were lysed and the mitochondria isolated for a mass spectrometry analysis where compounds isolated from mitochondria were identified as Na+ adducts. […] Thus, the targeting peptides successfully direct a NOS antagonist and a nitroxide to the mitochondria.

[5] = tested on: irradiated uroepithelial cells; assay: NO and peroxynitrite production in irradiated uroepithelial cells (microsensor measurements); type: cell-based
Method: Further physiological studies were conducted to determine the effects of peptide-targeted AMT and 4-amino-TEMPO on NO and peroxynitrite production in irradiated uroepithelial cells. The cells were cultured in an 8-well slide chamber for 3 days and then microsensor measurements were taken 24 hours after irradiation.
In cells treated with high-dose conjugated 4-amin-TEMPO (100 μM), peroxynitrite production was decreased by approximately 4-fold.

[6] = tested on: rat ileal mucosal permeability; assay: Intestinal mucosal permeability assay (FD4 clearance, everted gut sacs) after pressure-controlled hemorrhagic shock; type: in vivo; details: for protection against hemorrhagic shock-induced ileal mucosal hyperpermeability: intraluminal, 0.1-100 μM, 2 h shock
Method: Intestinal mucosal permeability assay. Animals were allowed access to water but not food for 24 h prior to the experiment in order to decrease the volume of intestinal contents. The rats were instrumented as described above.
A midline laparotomy was performed and the small intestine was exteriorized from the duodenojejunal junction to the ileocecal valve. A small incision was made on the antimesenteric aspect of the proximal small intestine and saline solution (1.5 ml) was injected. The bowel was ligated proximally and distally to the incision with 4-0 silk (LOOK, Reading, Pa.).
The small intestine was compressed gently in aboral direction along its length to displace intestinal contents into the colon. Starting 5 cm from the ileocecal valve, the ileum was partitioned into six contiguous water-tight segments. Each segment was 3 cm long and was bounded proximally and distally by constricting circumferential 4-0 silk sutures. Care was taken to ensure that the vascular supply to intestine was not compromised, and each segment was well-perfused.
Two randomly selected segments in each rat were injected with 0.3 ml of vehicle and served as “no treatment” controls. In order to fill the segments, a small incision was made and the solution was injected using a Teflon catheter (ABBOCATH 16Ga, ABBOTT LABORATORIES).
The remaining four other segments were injected with solutions containing either 4-hydroxy-2,2,6,6-tetramethylpiperidine-N-oxyl (TEMPOL) or one of the Gramicidin S-based compounds. Four different final concentrations of TEMPOL in normal saline were evaluated: 0.1, 1, 5 and 20 mM. The hemigramicidin-based compounds were dissolved in a mixture of dimethylsulfoxide (DMSO) and normal saline (1:99 v/v) and injected at final concentrations of 0.1, 1, 10 or 100 μM.
After the segments were loaded with saline or the test compounds, the bowel was replaced inside the peritoneal cavity and the abdominal incision was temporarily closed using Backhaus forceps.
After a 5 min stabilization period, hemorrhagic shock was induced by withdrawing blood via the jugular catheter. MAP was maintained at 30±3 mm Hg for 2 hours. The shed blood was re-infused as needed to maintain MAP within the desired range.
After 2 h of shock, the animals were euthanized with an intracardiac KCl bolus injection. The ileum was rapidly excised from the ileocecal valve to the most proximal gut segment. The tips of each segment were discarded. In order to assay caspases 3 and 7 activity and phospholipids peroxidation, mucosa samples were collected from gut segments immediately after hemorrhage and stored at −80° C. For permeability measurements, each segment was converted into an everted gut sac, as previously described by Wattanasirichaigoon et al., see Wattanasirichaigoon, S. et al., Effect of mesenteric ischemia and reperfusion or hemorrhagic shock on intestinal mucosal permeability and ATP content in rats, SHOCK, 12:127-133 (1999).
Briefly, as per the Wattanasirichaigoon protocol referenced above, the sacs were prepared in ice-cold modified Krebs-Henseleit bicarbonate buffer (“KHBB”), pH 7.4. One end of the gut segment was ligated with a 4-0 silk suture; the segment was then everted onto a thin plastic rod. The resulting gut sac was mounted on a Teflon catheter (Abbocath 16GA, Abbot Laboratories) connected to a 3 ml plastic syringe containing 1.5 ml of KHBB. The sac was suspended in a beaker containing KHBB plus fluorescein-isothiocyanate labeled dextran (average molecular mass 4 kDa; FD4; 0.1 mg/ml). This solution was maintained at 37° C., and oxygenated by bubbling with a gas mixture (O2 95%/CO2 5%). After 30 min, the fluid within the gut sac was collected. The samples were cleared by centrifugation at 2000 g for 5 min.
Fluorescence of FD4 in the solution inside the beaker and within each gut sac was measured using a fluorescence spectrophotometer (LS-50, PERKIN-ELMER, Palo Alto, Calif.) at an excitation wavelength of 492 nm and an emission wavelength of 515 nm. […]

[7] = tested on: mitochondrial membrane; assay: Quantitative mass spectrometry of AMT peptide conjugates permeating the mitochondrial membrane; type: cell-based; details: for Fmole/l0M mitochondrial protein: relative quantification of conjugate concentration at the target site
Method: Quantitative mass spectrometry studies were used to compare the effectiveness of several AMT peptide conjugates in permeating the mitochondrial membrane, specifically XJB-5-234, XJB-5-133, XJB-5-241, and XJB-5-127. The Fmole/10 μM mitochondrial protein ratio provides a relative quantification of conjugate concentration at the target site.

CC1(C)CC(N)CC(C)(C)N1[O] [4-AT, 4-amino-TEMPO, reference compound]
integration and one-electron reduction in MECs (EPR signal increase upon ferricyanide) [1]: did not effectively permeate cells or the mitochondria | intracellular superoxide generation in MECs [2]: no effect | protection of MECs against ActD-induced apoptosis [3]: afforded no protection | permeation of the mitochondrial membrane (mass spectrometry of isolated mitochondria) [4]: only permeate the mitochondrial membrane with the assistance of the attached GS-derived targeting sequence | capsaicin-evoked peroxynitrite formation compared with untreated irradiated cells ([5]; 100 μM, 24 hours after irradiation): comparable amount of peroxynitrite

CC1CCN=C(N)S1 (centres unmarked) [AMT, 2-amino-6-methyl-thiazine]
permeation of the mitochondrial membrane (mass spectrometry of isolated mitochondria) [4]: do not enter the mitochondria membrane in substantial quantities | radioprotectant effectiveness compared with 4-amino-TEMPO [5]: more effective radioprotectant | NO induced peroxynitrite formation ([5]; 10 μM, 24 hours after irradiation): comparable amount of peroxynitrite

CC1(C)CC(O)CC(C)(C)N1[O] [TEMPOL, 4-hydroxy-2,2,6,6-tetramethylpiperidine-N-oxyl, reference compound]
concentrations in the gut lumen that ameliorated hemorrhagic shock-induced ileal mucosal hyperpermeability ([6]; intraluminal, 0.1, 1, 5 and 20 mM tested): > 1 mM

CC(C)C[C@H](NC(=O)OC(C)(C)C)C(=O)N[C@H](Cc1ccccc1)C(=O)N1CCC[C@H]1C(=O)N[C@H](C(=O)N[C@@H](CCCNC(=O)OCc1ccccc1)C(=O)NC1=NCCC(C)S1)C(C)C (stereo partly drawn) [XJB-5-127, Boc-Leu-^DPhe-Pro-Val-Orn(Cbz)-AMT] (Boc-L[dF]PV[Orn](Cbz)-X1)
protection against hemorrhagic shock-induced ileal mucosal hyperpermeability [6]: Ineffective | biological activity compared with XJB-5-241 [7]: less biologically active

CC(C)C[C@@H](/C=C/[C@H](Cc1ccccc1)C(=O)N1CCC[C@H]1C(=O)N[C@H](C(=O)N[C@@H](CCCNC(=O)OCc1ccccc1)C(=O)NC1=NCCC(C)S1)C(C)C)NC(=O)OC(C)(C)C (stereo partly drawn) [XJB-5-133, Boc-Leu-ψ[(E)-CH═CH]-^DPhe-Pro-Val-Orn(Cbz)-AMT]
protection against hemorrhagic shock-induced ileal mucosal hyperpermeability [6]: did not afford protection | biological activity compared with XJB-5-241 [7]: less biologically active | Fmole/l0M mitochondrial protein [7]: 89.8 Fmole/l0M mitochondrial protein

CC(C)C[C@@H](/C=C/[C@H](Cc1ccccc1)C(=O)NC1=NCCC(C)S1)NC(=O)OC(C)(C)C (stereo partly drawn) [XJB-5-234, Boc-Leu-ψ[(E)-CH═CH]-^DPhe-AMT]
Fmole/l0M mitochondrial protein [7]: 1.45 Fmole/l0M mitochondrial protein

C/C(=C\[C@H](Cc1ccccc1)C(=O)N1CCC[C@H]1C(=O)N[C@H](C(=O)N[C@@H](CCCNC(=O)OCc1ccccc1)C(=O)NC1=NCCC(C)S1)C(C)C)[C@H](CC(C)C)NC(=O)OC(C)(C)C (stereo partly drawn) [XJB-5-241, Boc-Leu-ψ[(E)-C(CH3)═CH]-^DPhe-Pro-Val-Orn(Cbz)-AMT]
ranking of conjugates in permeating the mitochondrial membrane ([7]; among XJB-5-234, XJB-5-133, XJB-5-241 and XJB-5-127): most efficacious conjugate | Fmole/l0M mitochondrial protein [7]: 103.3 Fmole/l0M mitochondrial protein

Source: patent US9402839B2, “Selective targeting agents for mitochondria” (University of Pittsburgh—Of the Commonwealth System of …, priority 2006, dated 2016)
